Measurements published in PubChem BioAssay (NCI).
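In this assay, cells in 96-well plates receive the compound at five concentrations for 48 hours. Endpoints are linearly interpolated between the surrounding concentrations. GI50 marks 50% less growth. The concentration for full growth arrest is given as TGI.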

Columns and labels:
Assay in all cases: growth of human tumour cells (NCI), 48 h
SF-268 CNS = test system: SF-268 CNS
CAKI-1 renal = test system: CAKI-1 renal
K-562 leukemia = test system: K-562 leukemia
DU-145 prostate = test system: DU-145 prostate
HT29 colon = test system: HT29 colon
COLO 205 colon = test system: COLO 205 colon
SK-OV-3 ovarian = test system: SK-OV-3 ovarian
HL-60(TB) leukemia = test system: HL-60(TB) leukemia
EKVX NSCLC = test system: EKVX NSCLC
HCT-116 colon = test system: HCT-116 colon

| Structure (SMILES) | GI50 (SF-268 CNS) | TGI (SF-268 CNS) | GI50 (CAKI-1 renal) | TGI (CAKI-1 renal) | GI50 (K-562 leukemia) | TGI (K-562 leukemia) | GI50 (DU-145 prostate) | TGI (DU-145 prostate) | GI50 (HT29 colon) | TGI (HT29 colon) | GI50 (COLO 205 colon) | TGI (COLO 205 colon) | GI50 (SK-OV-3 ovarian) | TGI (SK-OV-3 ovarian) | GI50 (HL-60(TB) leukemia) | TGI (HL-60(TB) leukemia) | GI50 (EKVX NSCLC) | TGI (EKVX NSCLC) | GI50 (HCT-116 colon) | TGI (HCT-116 colon) |
| --- | --- | --- | --- | --- | --- | --- | --- | --- | --- | --- | --- | --- | --- | --- | --- | --- | --- | --- | --- | --- |
| COC(=O)[C@]12CC[C@@H](C)[C@H](C)[C@@H]1C1=CC[C@@H]3[C@@]4(C)C=C(O)C(=O)C(C)=C4CC[C@@]3(C)[C@]1(C)CC2 | 15.2 µM | 35.1 µM | 12.4 µM | 31.4 µM | 14.3 µM | 39.2 µM | 15.2 µM | 33.3 µM | 9.35 µM | 23 µM | 12.5 µM | 30.1 µM | 15.6 µM | 38.4 µM | 13.7 µM | 35.7 µM | 4.96 µM | 19.5 µM | 6.03 µM | 20.6 µM |
| CCc1nc(N)nc(N)c1-c1ccc(Cl)c(N=NN(C)C)c1 | – | > 100 µM | – | > 96.9 µM | – | > 65 µM | – | > 100 µM | – | > 91.4 µM | – | 50.7 µM | – | > 100 µM | – | > 52.9 µM | – | > 95.2 µM | – | > 75.1 µM |
| C[C@@]12CCC[C@@](C)(C(=O)O)C1CC[C@@]13CC(=O)[C@@](CO)(CCC12)C3 (stereo not given in full) | > 100 µM | > 100 µM | > 100 µM | > 100 µM | > 100 µM | > 100 µM | > 100 µM | > 100 µM | > 100 µM | > 100 µM | > 100 µM | > 100 µM | > 100 µM | > 100 µM | > 100 µM | > 100 µM | > 100 µM | > 100 µM | > 100 µM | > 100 µM |
| C=C1C(=O)O[C@H]2[C@H]1CC(=O)/C(C)=C\CC[C@@]1(C)O[C@@H]21 | 4.15 µg/mL | 9.58 µg/mL | 1.19 µg/mL | 3.45 µg/mL | 0.842 µg/mL | 4.15 µg/mL | 3.44 µg/mL | 7.11 µg/mL | 1.29 µg/mL | 4.32 µg/mL | 0.755 µg/mL | 3.54 µg/mL | 7.86 µg/mL | 17.4 µg/mL | 0.264 µg/mL | 4.19 µg/mL | 4 µg/mL | 8.03 µg/mL | 1.26 µg/mL | 4.97 µg/mL |
| Nc1c(O)c(S(=O)(=O)O)c(O)c2c1C(=O)c1ccccc1C2=O | 3.44 µM | > 100 µM | 2.34 µM | 7.26 µM | 3.13 µM | 13.9 µM | 3.8 µM | > 100 µM | 2.72 µM | 10.4 µM | 1.61 µM | 3.01 µM | 1.98 µM | 5.36 µM | 1.56 µM | 3.65 µM | 3.09 µM | > 100 µM | 2.78 µM | 10.9 µM |
| Oc1ccc(-c2nc3ccc4[nH]ncc4c3c3c2CCCC3)c2cccnc12 | 0.239 µM | 5.24 µM | 0.12 µM | 0.886 µM | 0.139 µM | 33.3 µM | 0.5 µM | 8.13 µM | 1.09 µM | 6.73 µM | 0.89 µM | 2.42 µM | 0.509 µM | 2.26 µM | 0.639 µM | 3.14 µM | 0.329 µM | 2.24 µM | 0.228 µM | 4.14 µM |
| COc1cc(/C=C/C(=O)c2cc(OC)c(OC)c(OC)c2)cc(OC)c1OC | 2.77 µM | 10 µM | 1.23 µM | 3.87 µM | 2.46 µM | > 100 µM | 2.03 µM | 5.95 µM | 3.64 µM | 15 µM | 9.09 µM | 25.8 µM | 11.5 µM | > 100 µM | 1.21 µM | 11.2 µM | 2.63 µM | 21.5 µM | 2.3 µM | 8.74 µM |
| COC(=O)c1cc2c(cc1Cl)SC(N(N(C)C)S(=O)(=O)c1ccc(Cl)cc1)=NS2(=O)=O | 20.1 µM | 45.5 µM | 21.3 µM | 46.1 µM | 11.3 µM | 23.8 µM | 13.7 µM | 26.6 µM | 16.1 µM | 31.9 µM | 13.4 µM | 29.8 µM | 17.9 µM | 49.2 µM | 16.4 µM | 42.6 µM | 17 µM | 33 µM | 15.6 µM | 29 µM |
| O=C1C(=O)c2c(nc3ncccn23)-c2ccccc21 | 0.339 µM | 1.13 µM | 0.64 µM | 1.9 µM | 0.219 µM | 2.75 µM | 0.181 µM | 0.336 µM | 0.838 µM | 2.29 µM | 2.13 µM | 4.53 µM | 1.08 µM | 2.52 µM | 0.247 µM | 0.64 µM | 0.396 µM | 0.954 µM | 0.184 µM | 0.379 µM |
